Measured values: US4774259A, “Phenylalanine derivatives and uses thereof” (Ajinomoto Co., Inc., priority 1985, dated 1988)

Experiments:
[1] = Absorption promoting test of insulin, oral, mice (Example 3): blood glucose value; type: in vivo, female ICR-CDI mice; settings: for decrease in the blood glucose value (in words): oral with insulin, compared with a control group
Experimental: A test for the promotion of the absorption of insulin was carried out upon the above-described absorption promoters and upon two known absorption promoting agents. Thus, insulin in a prescribed dose (23.3 unit/mg) and the absorption promoter, as given in the Table below, were dissolved or suspended in a 0.05M phosphate buffer. Then groups of five female ICR-CDI mice, 6 to 7 weeks old, which had not been fed for 18 hours, were orally administered with the predetermined buffer solution (0.5 ml). A predetermined time later, the blood glucose value of each group of mice was determined.

male ICR mice = test: Toxicity test, oral LD50, mice (Example 4); type: in vivo; settings: compared with known absorption promoting agents
Experimental: Predetermined amounts of the absorption promoters listed in the Table were each suspended in 0.5% CMC sodium salt solution. Groups of ten male ICR mice, 4 weeks old, were orally administered with the suspension. Two weeks thereafter, the LD50 values were determined.

[2] = Absorption promoting test of insulin, oral, mice (Example 7): blood glucose and immunoreactive insulin; type: in vivo, female ICR-CDl mice; settings: for Decrease in Blood Glucose / Degree of increase of Blood Insulin: insulin 0.5 unit/10 g, promoter 3 mg/10 g, oral, compared with phosphate buffer control; for effect on decreasing the blood glucose value and increasing the blood insulin level (in words): oral with insulin
Experimental: A test for the absorption of insulin was carried out with absorption promoters of the present invention. Thus, insulin (0.5 unit/10 g weight) and the absorption promoter (3 mg/10 g weight) were suspended in a 0.05M phosphate buffer. Then the group of five female ICR-CDl mice, 5 to 7 weeks old, which were fasted for 18 hours, were orally administered with the prepared suspension.
The blood glucose value and the immunoreactive insulin level of each group of mice were determined at the fixed time.
The percent decrease in blood glucose and the degree of increase of blood insulin as compared with a phosphate buffer control group were shown in Table 2.

SMILES	Blood Glucose ([1]; insulin 50 unit/kg, absorption promoter 150 mg/kg, oral, 30 minutes, control 82.4 ± 8.1) [mg/dL]	decrease in the blood glucose value (in words) [1]	LD50 value (in words) (male ICR mice)	Decrease in Blood Glucose ([2]; 15 minutes) [%]	Degree of increase of Blood Insulin ([2]; 15 minutes)	Decrease in Blood Glucose ([2]; 30 minutes) [%]	Degree of increase of Blood Insulin ([2]; 30 minutes)	Decrease in Blood Glucose ([2]; 60 minutes) [%]	Degree of increase of Blood Insulin ([2]; 60 minutes)	effect on decreasing the blood glucose value and increasing the blood insulin level (in words) [2]
Cc1ccc(C=CC(=O)N[C@@H](Cc2ccccc2)C(=O)O)cc1 [N-(4-methylcinnamoyl)-L-phenylalanine]	78.0 ± 7.8	small								
Cc1ccc(C=C(F)C(=O)N[C@H](Cc2ccccc2)C(=O)O)cc1 [N-(α-fluoro-4-methylcinnamoyl)-D-phenylalanine]		excellent effect in decreasing the blood glucose value	excellent LD50 value							
Cc1ccc(C=C(F)C(=O)N[C@@H](Cc2ccccc2)C(=O)O)cc1 [N-(α-fluoro-4-methylcinnamoyl)-L-phenylalanine]		excellent effect in decreasing the blood glucose value	excellent LD50 value							
O=C(N[C@@H](Cc1ccccc1)C(=O)O)C(F)=Cc1ccccc1 [N-(α-fluorocinnamoyl)-L-phenylalanine]		small								
Cc1ccc(C(Cl)=CC(=O)N[C@H](Cc2ccccc2)C(=O)O)cc1 [N-(β-chloro-4-methylcinnamoyl)-D-phenylalanine]				35.7	2.1	47.8	3.3	42.8	1.0	excellent effect on decreasing the blood glucose value and increasing the blood insulin level
Cc1ccc(C(Cl)=CC(=O)N[C@@H](Cc2ccccc2)C(=O)O)cc1 [N-(β-chloro-4-methylcinnamoyl)-L-phenylalanine]				42.1	10.5	21.6	2.0	12.1	2.1	excellent effect on decreasing the blood glucose value and increasing the blood insulin level
